Experimental data: ChEMBL document CHEMBL1938310, “Discovery of novel antitubercular 1,5-dimethyl-2-phenyl-4-([5-(arylamino)-1,3,4-oxadiazol-2-yl]methylamino)-1,2-dihydro-3H-pyrazol-3-one analogues” (Bioorg Med Chem Lett, 2012)
Converted amounts (≈) assume the structure as drawn.

How the values were obtained:
[1] = system: Mycobacterium tuberculosis; assay: Antimycobacterial activity against Mycobacterium tuberculosis H37Rv by two fold agar dilution method; type: functional
Vero = assay: Cytotoxicity against African green monkey Vero cells at 62.5 ug/ml after 72 hrs by MTT assay; type: cell-based; conditions: chlorocebus sabaeus

Compound `Cc1c(NCc2nnc(Nc3ccccc3)o2)c(=O)n(-c2ccccc2)n1C` has an MIC [1] of 10 µg/mL (≈ 26.6 µM).
For `Cc1c(NCc2nnc(Nc3ccc(S(N)(=O)=O)cc3)o2)c(=O)n(-c2ccccc2)n1C`, the Activity (Vero) was “Non-toxic” and the MIC [1] was 3.12 µg/mL (≈ 6.85 µM).
In the case of `Cc1c(NCc2nnc(Nc3ccc(F)cc3)o2)c(=O)n(-c2ccccc2)n1C`, the Activity (Vero) is reported as “Non-toxic” and the MIC [1] is reported as 0.78 µg/mL (≈ 1.98 µM).
In the case of `Cc1c(NCc2nnc(Nc3ccccc3Cl)o2)c(=O)n(-c2ccccc2)n1C`, the MIC [1] is reported as 10 µg/mL (≈ 24.3 µM).
With `Cc1c(Cl)cccc1Nc1nnc(CNc2c(C)n(C)n(-c3ccccc3)c2=O)o1` the MIC [1] was 10 µg/mL (≈ 23.5 µM).
In the case of `Cc1c(NCc2nnc(Nc3ccc(Br)cc3)o2)c(=O)n(-c2ccccc2)n1C`, the Activity (Vero) is reported as “Non-toxic” and the MIC [1] is reported as 6.25 µg/mL (≈ 13.7 µM).
In the case of `COc1ccc(Nc2nnc(CNc3c(C)n(C)n(-c4ccccc4)c3=O)o2)cc1`, the MIC [1] is reported as 12.5 µg/mL (≈ 30.8 µM).
With `Cc1c(NCc2nnc(Nc3ccc(Cl)cc3)o2)c(=O)n(-c2ccccc2)n1C` the Activity (Vero) was “Non-toxic” and the MIC [1] was 6.25 µg/mL (≈ 15.2 µM).
For `Cc1c(NCc2nnc(Nc3ccc(F)c(Cl)c3)o2)c(=O)n(-c2ccccc2)n1C`, the Activity (Vero) was “Non-toxic” and the MIC [1] was 6.25 µg/mL (≈ 14.6 µM).
`CCOc1ccc(Nc2nnc(CNc3c(C)n(C)n(-c4ccccc4)c3=O)o2)cc1` showed an MIC [1] greater than 12.5 µg/mL.
For `Cc1c(NCc2nnc(Nc3ccc([N+](=O)[O-])cc3)o2)c(=O)n(-c2ccccc2)n1C`, the Activity (Vero) was “Non-toxic” and the MIC [1] was 3.12 µg/mL (≈ 7.4 µM).
Compound `Cc1ccc(Nc2nnc(CNc3c(C)n(C)n(-c4ccccc4)c3=O)o2)cc1` has an MIC [1] of 12.5 µg/mL (≈ 32 µM).
For `COc1ccc(Nc2nnc(CNc3c(C)n(C)n(-c4ccccc4)c3=O)o2)c(OC)c1`, the MIC [1] was greater than 12.5 µg/mL.
`Cc1c(NCc2nnc(Nc3ccc(O)cc3)o2)c(=O)n(-c2ccccc2)n1C` showed an MIC [1] of 10 µg/mL (≈ 25.5 µM).
In the case of `Cc1cccc(C)c1Nc1nnc(CNc2c(C)n(C)n(-c3ccccc3)c2=O)o1`, the MIC [1] is reported as 10 µg/mL (≈ 24.7 µM).
`NNC(=O)c1ccncc1` [ISONIAZID] gave an MIC [1] of 0.78 µg/mL (≈ 5.69 µM).
Compound `Cc1ccc(Nc2nnc(CNc3c(C)n(C)n(-c4ccccc4)c3=O)o2)c(C)c1` has an MIC [1] of 12.5 µg/mL (≈ 30.9 µM).
